Experimental data reported in publication PMC9026853, “Design, Physicochemical Characterization, and In Vitro Permeation of Innovative Resatorvid Topical Formulations for Targeted Skin Drug Delivery” (Pharmaceutics, 2022).
Several values for one entry are separate records, joined by “and”; a condition that tells them apart may be missing. Equal entries are not always repeated.

Experiments:
SKH-1 mice = tested on: SKH-1 mice; set-up: method as in PMID 29437671; conditions: topical, cited from earlier work
[1] = method and reference not given; cited from earlier work
[2] = set-up: method as in PMID 29437671; conditions: standardized Franz cell system; cited from earlier work
[3] = Particle sizing by SEM image analysis; type: physicochemical
Text: The particle size and surface morphology of raw resatorvid were obtained using scanning electron microscopy (SEM) (FEI, Brno, Czech Republic). The samples were sprinkled onto the double-sided adhesive carbon tabs (Ted Patella, Inc. Redding, CA, USA), which were adhered to aluminum stubs and coated with a 7 nm thin film of gold palladium alloy, using an Anatech Hummer 6.2 (Union City, CA, USA) sputtering system at 20 µA for 90 s under an argon plasma. The electron beam with an accelerating voltage of 30 kV was used at a working distance of approximately 9–12 mm. The SEM images were collected at various magnifications.
Using SEM micrographs, the mean size, standard deviation, and size range of the particles were determined digitally using SigmaScan^TM Pro 5.0.0 (Systat, Inc., San Jose, CA, USA). Representative micrographs of raw resatorvid at 400–5000× magnification were analyzed by measuring the diameter of at least 60 particles per sampling.

[4] = In vitro oil-water partitioning coefficient (Log-P), 1-octanol/PBS, HPLC; type: physicochemical; conditions: for Experimental (Log-P): n = 3, mean ± SD; for partition coefficient (Log-P), range over pH: pH 6.5, 7.1, 8.8
Method: The HPLC consisted of a Shimadzu LC-2010A HT liquid chromatograph (Torrance, CA, USA), coupled with a UV–Vis dual wavelength detector. The analysis was performed by a reverse-phase HPLC assay, using a Luna C18, 5 μm column (250 mm × 2 mm) (Phenomenex, Torrance, CA, USA), maintained at 25 °C ± 2 °C. Ultraviolet detection was done at 254 nm. The mobile phase conditions were 50:50 (v/v) acetonitrile: trifluoroacetic acid (0.1% v/v) at a flow rate of 0.3 mL/min. The injection volume was 10 µL. The retention time for resatorvid was ~15.9 min. Quantification was determined using peak area and calculated from a five-point standard curve (0.0625 mg/mL to 1 mg/mL, R^2 = 0.9971). Standards were prepared by volumetric dilution in acetonitrile and stored at 4 °C, protected from light. The modifications made to the method were using a column length of 250 mm × 2 mm instead of 150 mm × 2.1 mm and a mobile phase of 50:50 (v/v) acetonitrile: trifluoroacetic acid (0.1% v/v) instead of 40:60 (v/v) acetonitrile: trifluoroacetic acid (0.1% v/v) as previously reported.
Resatorvid raw powder was weighed out (0.003 g) and placed in 2 dram amber-colored glass vials containing equal volumes (1.5 mL) of 1-octanol and PBS (1×, pH = 7.4) to make a 1 mg/mL solution. Various solutions were made, and the pH was adjusted and maintained at pH values of 6.5, 7.1, 8.8. Adjustments to the pH were made using 0.1 M hydrochloric acid (HCl) solution and 0.1 M sodium hydroxide (NaOH) solution. […] The vials were rotated using a Barnstead/Thermolyne Labquake shaker (Dubuque, IA, USA) for 24 h and left undisturbed in a vertical position for an additional 24 h for phase separation between the aqueous and non-aqueous layers. Then, 200 μL of the organic and aqueous layers were sampled very carefully without disturbing the separation of phases and analyzed via the HPLC method previously mentioned.

HaCaT cells = test: In vitro cell dose-response (resazurin viability) in 2D culture, HaCaT; type: cell-based, human; conditions: for toxicity to HaCaT cells: 0.01-1000 µM raw resatorvid, 72 h exposure as printed in results
Method: (§1) The effects of raw resatorvid on the viability of human representative keratinocyte cell lines exposed to concentrations at 1000 μM, 100 μM, 10 μM, 1 µM, 0.1 µM, and 0.01 µM were tested. HaCaT cells (a human transformed keratinocyte from a histologically normal skin cell line) and primary NHEKs (normal human epidermal keratinocyte cells) were used as models of the human epidermis, which generates keratinocytes in the stratum basale and then differentiates into the final barrier layer of the skin, the stratum corneum. The HaCaT cells were grown in Dulbecco’s modified Eagle’s medium (DMEM), Optimized 1×, 10% (v/v) FBS, and Pen-Strep (100 units/mL penicillin, 100 µg/mL) in a humidified incubator at 37 °C and 5% CO2. The NHEK cells were grown in an NHEK growth medium provided by MatTek (Ashland, MA, USA) in a humidified incubator at 37 °C and 5% CO2.
(§2) After confluence, the HaCaT and NHEK cells were seeded in a black 96-well plate at a concentration of 5000 cells in 100 µL of media/well, then incubated for 48 h to allow attachment to the surface of the plates. After 48 h, the cells were then exposed to the different concentrations of resatorvid previously mentioned. The drug solutions were prepared by dissolving raw resatorvid powder in 5% (v/v) DMSO and adequate growth medium to make a solution at 1×. A volume of 100 µL of drug solution was added to each well. […] The fluorescence intensity of resorufin was detected at 544 nm (excitation) and 590 nm (emission) using the Molecular Devices® SpectraMax® M3 Multi-Mode Microplate Reader (Sunnyvale, CA, USA). The relative viability of the cells was calculated as followed by Equation (1):(1) Relative Viability %=Sample flourescence intensity/Control flourescece intensity×100%

[5] = as above; type: cell-based, human; conditions: human, HaCaT cells (transformed keratinocytes), 2D culture; concentrations at 0.01 µM and 0.1 µM
Method: as §1, §2

[6] = tested on: primary normal human epidermal keratinocytes (NHEKs); test: In vitro cell dose-response (resazurin viability) in 2D culture, NHEK; type: cell-based; conditions: 0.01-1000 µM raw resatorvid, 72 h exposure as printed in results
Method: as §1, §2

[7] = as above; type: cell-based, human; conditions: human; all concentrations (0.01-1000 µM); read-out: viability of NHEK cells
Method: as §1, §2

[8] = Residual water content by Karl Fisher coulometric titration; type: physicochemical; conditions: KFT, n = 4, mean ± SD, Table S2
Method: The residual water content of raw resatorvid powder was quantified by coulometric KFT using a TitroLine 750 trace titrator (SI Analytics, Weilheim, Germany). In brief, 1 mL of 0.1% (w/v) of resatorvid in anhydrous methanol was added to the titration cell containing Hydranal® Coulomat AD reagent.

- average geometric (linear) size of the raw particles [3]: 5.84 µm
- Experimental (Log-P) ([4]; At 35 °C, pH = 6.5, 1-octanol/PBS): 1.65 ± 0.029
- Experimental (Log-P) ([4]; At 35 °C, pH = 7.1): 1.68 and 1.68 ± 0.013
- Experimental (Log-P) ([4]; At 35 °C, pH = 8.8): 0.94 ± 0.023
- Experimental (Log-P) ([4]; At Room temperature/ambient temperature, pH = 6.5): 1.58 ± 0.019
- Experimental (Log-P) ([4]; At Room temperature/ambient temperature, pH = 7.1): 1.54 ± 0.149
- Experimental (Log-P) ([4]; At Room temperature/ambient temperature, pH = 8.8): 0.88 ± 0.060
- partition coefficient (Log-P), range over pH ([4]; at 35 °C): 0.94–1.68
- partition coefficient (Log-P), range over pH ([4]; at room/ambient temperature): 0.88–1.58
- Residual Water content [8]: 0.0173 ± 0.0156 %w/w
Structure (SMILES): CCOC(=O)C1=CCCC[C@H]1S(=O)(=O)Nc1ccc(F)cc1Cl [resatorvid, ethyl (6R)-6-[N-(2-Chloro-4-fluorophenyl)sulfamoyl]cyclohex-1-ene-1-carboxylate]
- modulation of UV-induced biomarkers (SKH-1 mice; acetone solution of TAK-242 (13 mM), SKH-1 mice): successfully modulated UV-induced biomarkers
- UV-induced AP-1 activation (SKH-1 mice; mice): reduces UV-induced AP-1 activation
- photocarcinogenesis (SKH-1 mice; mice): inhibits photocarcinogenesis
- experimentally determined pKa reported [1]: 8.0–8.1
- amount of resatorvid in the lower epidermis (tape strips 4–12), average over time course [2]: 5 µg/cm^2
- time remaining in the skin [2]: at least 8 hr
- toxicity to HaCaT cells (HaCaT cells): negligible toxicity
- toxicity to HaCaT cells (HaCaT cells; listed as Resatorvid): did not show any significant toxicity
- effect on HaCaT cells at higher concentrations (HaCaT cells; concentration increased from 1 µM to 1000 µM): cell proliferation was observed
- viability at 48 h [5]: ~100%
- toxicity to NHEK cells [6]: negligible toxicity
- toxicity to NHEK cells ([6]; listed as Resatorvid): did not show any significant toxicity
- viability at 48 h [7]: ~100%
